Test results: US8969363B2, “Heterocyclic compounds and uses thereof” (Infinity Pharmaceuticals, Inc., priority 2011, dated 2015)
Where two headings read alike, the source gives them in different places.

Tests used:
[1] = target: PI3Kβ; experiment: PI3 Kinase HTRF assay, PI3Kβ; assay type: biochemical, human; settings: 10 μM PIP2, 10 μM ATP; 'Greater than 10 μM' and 'Greater than 1 μM to 10 μM'; read-out: PI3K β IC50
Procedure, shortened: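 Recombinant PI3Kβ converting PIP2 (10 μM) to PIP3 with 10 μM ATP; PIP3 detected by competitive HTRF displacement of biotin-PIP3/GST-GRP1 PH domain complex. Emission ratios converted to % inhibition; IC50 by nonlinear regression.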

[2] = target: T1, PI3Kγ (Homo sapiens, UniProt P48736); experiment: PI3 Kinase HTRF assay, PI3Kγ; assay type: biochemical; settings: 10 μM PIP2, 10 μM ATP; 'Greater than 10 μM' and 'Greater than 1 μM to 10 μM'; read-out: PI3K γ IC50
T1 construct: purchased Millipore Corporation 14-558-K
Source text: (§1) A PI3-Kinase HTRF® assay kit (cat No. 33-016) purchased from Millipore Corporation was used to screen compounds provided herein. This assay used specific, high affinity binding of the GRP1 pleckstrin homology (PH) domain to PIP3, the product of a Class 1A or 1B PI3 Kinase acting on its physiological substrate PIP2. During the detection phase of the assay, a complex was generated between the GST-tagged PH domain and biotinylated short chain PIP3. The biotinylated PIP3 and the GST-tagged PH domain recruited fluorophores (Streptavidin-Allophycocyanin and Europium-labeled anti-GST respectively) to form the fluorescence resonance energy transfer (FRET) architecture, generating a stable time-resolved FRET signal. The FRET complex was disrupted in a competitive manner by non-biotinylated PIP3, a product formed in the PI3 Kinase assay.
(§2) PI3 Kinase α, β, γ and δ activity was assayed using the PI3 Kinase HTRF® assay kit (catalogue No. 33-016) purchased from Millipore Corporation. Purified recombinant PI3Kα (catalogue No. 14-602-K), PI3Kβ (catalogue No. 14-603-K), PI3Kγ (catalogue No. 14-558-K) and PI3Kδ (catalogue No. 14-604-K) were obtained from Millipore Corporation. Purified recombinant PI3K enzyme was used to catalyze the phosphorylation of phosphatidylinositol 4,5-bisphosphate (PIP2 at 10 μM) to phosphatidylinositol 3,4,5-trisphosphate (PIP3) in the presence of 10 μM ATP. The assay was carried out in 384-well format and detected using a Perkin Elmer EnVision Xcite Multilabel Reader. Emission ratios were converted into percent inhibitions and imported into GraphPad Prism software. The concentration necessary to achieve inhibition of enzyme activity by 50% (IC50) was calculated using concentrations ranging from 20 μM to 0.1 nM (12-point curve). IC50 values were determined using a nonlinear regression model available in GraphPad Prism 5. […]

[3] = test system: Balb/c splenic B cells; experiment: B cell activation and proliferation assay (Alamar Blue); assay type: cell-based; settings: Mus musculus
Procedure, shortened: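 Balb/c splenic B cells (Ficoll, then MACS purification; 50,000/well) were preincubated 30 min with compound at 0.2% final DMSO. They were then stimulated 72 h at 37 °C with a cocktail of 10 μg/ml LPS, or 5 μg/ml anti-mouse F(ab′)2 plus 2 ng/ml mouse IL4. Alamar Blue was read after 5 h at 560Ex/590Em, giving IC50 or EC50.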

[4] = target: T2, PI3Kα (Homo sapiens, UniProt P42336); experiment: PI3 Kinase HTRF assay, PI3Kα; assay type: biochemical; settings: 10 μM PIP2, 10 μM ATP; 'Greater than 10 μM' and 'Greater than 1 μM to 10 μM'; read-out: PI3K α IC50
T2 construct: purchased Millipore Corporation 14-602-K
Source text: as §1, §2

[5] = target: T3, PI3Kδ (Homo sapiens, UniProt O00329); experiment: PI3 Kinase HTRF assay, PI3Kδ; assay type: biochemical; settings: 10 μM PIP2, 10 μM ATP, read-out: PI3K δ IC50
T3 construct: purchased Millipore Corporation 14-604-K
Source text: as §1, §2

[6] = 'Greater than 10 μM' and 'Greater than 1 μM to 10 μM'

T2 sequence (P42336 whole entry): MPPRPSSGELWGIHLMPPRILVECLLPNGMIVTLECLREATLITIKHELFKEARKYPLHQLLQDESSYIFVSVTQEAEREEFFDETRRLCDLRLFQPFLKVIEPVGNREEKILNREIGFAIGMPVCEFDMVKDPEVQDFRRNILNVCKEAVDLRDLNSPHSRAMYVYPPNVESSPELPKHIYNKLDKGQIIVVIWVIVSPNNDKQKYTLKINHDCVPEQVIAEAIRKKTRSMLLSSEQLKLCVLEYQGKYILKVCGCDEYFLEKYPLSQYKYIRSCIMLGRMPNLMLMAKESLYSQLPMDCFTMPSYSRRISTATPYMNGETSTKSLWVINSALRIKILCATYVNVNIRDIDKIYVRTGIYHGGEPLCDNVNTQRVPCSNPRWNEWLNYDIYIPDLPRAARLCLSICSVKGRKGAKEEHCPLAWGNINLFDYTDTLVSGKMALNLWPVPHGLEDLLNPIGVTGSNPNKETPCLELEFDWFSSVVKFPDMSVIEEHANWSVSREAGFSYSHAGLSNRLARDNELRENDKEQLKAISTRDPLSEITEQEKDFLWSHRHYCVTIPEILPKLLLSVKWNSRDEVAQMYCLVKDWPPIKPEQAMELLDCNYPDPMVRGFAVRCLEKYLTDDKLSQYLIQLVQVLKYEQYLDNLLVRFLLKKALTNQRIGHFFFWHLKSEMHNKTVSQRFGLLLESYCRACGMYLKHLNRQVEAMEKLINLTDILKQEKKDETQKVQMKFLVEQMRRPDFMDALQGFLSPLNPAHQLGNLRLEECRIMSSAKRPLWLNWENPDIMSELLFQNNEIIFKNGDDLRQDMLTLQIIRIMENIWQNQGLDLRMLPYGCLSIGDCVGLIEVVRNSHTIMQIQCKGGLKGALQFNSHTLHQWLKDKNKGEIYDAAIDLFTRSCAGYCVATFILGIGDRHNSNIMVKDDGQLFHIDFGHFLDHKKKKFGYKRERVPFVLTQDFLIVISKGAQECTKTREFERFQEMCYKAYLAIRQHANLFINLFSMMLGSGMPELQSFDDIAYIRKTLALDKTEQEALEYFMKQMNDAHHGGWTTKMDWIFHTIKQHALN
T2 sequence (P27986 whole entry partner): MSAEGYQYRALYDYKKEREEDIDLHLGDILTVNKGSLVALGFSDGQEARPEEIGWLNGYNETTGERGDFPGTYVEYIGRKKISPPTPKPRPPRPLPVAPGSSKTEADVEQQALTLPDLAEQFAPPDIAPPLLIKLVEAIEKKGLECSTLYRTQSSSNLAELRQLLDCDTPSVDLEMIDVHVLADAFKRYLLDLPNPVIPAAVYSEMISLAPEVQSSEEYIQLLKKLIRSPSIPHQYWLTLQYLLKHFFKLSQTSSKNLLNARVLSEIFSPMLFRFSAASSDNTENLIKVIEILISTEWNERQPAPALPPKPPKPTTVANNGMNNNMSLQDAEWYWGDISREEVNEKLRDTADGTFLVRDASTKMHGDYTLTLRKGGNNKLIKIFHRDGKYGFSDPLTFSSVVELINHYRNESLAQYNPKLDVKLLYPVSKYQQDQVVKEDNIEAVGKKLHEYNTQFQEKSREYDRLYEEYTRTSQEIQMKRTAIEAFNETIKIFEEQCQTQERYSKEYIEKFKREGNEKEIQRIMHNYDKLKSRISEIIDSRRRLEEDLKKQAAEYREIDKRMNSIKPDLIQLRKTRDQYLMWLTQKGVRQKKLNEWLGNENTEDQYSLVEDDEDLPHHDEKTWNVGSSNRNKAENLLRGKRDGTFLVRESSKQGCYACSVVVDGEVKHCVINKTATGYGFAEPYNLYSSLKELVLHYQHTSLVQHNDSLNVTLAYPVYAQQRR
T3 sequence (O00329 whole entry): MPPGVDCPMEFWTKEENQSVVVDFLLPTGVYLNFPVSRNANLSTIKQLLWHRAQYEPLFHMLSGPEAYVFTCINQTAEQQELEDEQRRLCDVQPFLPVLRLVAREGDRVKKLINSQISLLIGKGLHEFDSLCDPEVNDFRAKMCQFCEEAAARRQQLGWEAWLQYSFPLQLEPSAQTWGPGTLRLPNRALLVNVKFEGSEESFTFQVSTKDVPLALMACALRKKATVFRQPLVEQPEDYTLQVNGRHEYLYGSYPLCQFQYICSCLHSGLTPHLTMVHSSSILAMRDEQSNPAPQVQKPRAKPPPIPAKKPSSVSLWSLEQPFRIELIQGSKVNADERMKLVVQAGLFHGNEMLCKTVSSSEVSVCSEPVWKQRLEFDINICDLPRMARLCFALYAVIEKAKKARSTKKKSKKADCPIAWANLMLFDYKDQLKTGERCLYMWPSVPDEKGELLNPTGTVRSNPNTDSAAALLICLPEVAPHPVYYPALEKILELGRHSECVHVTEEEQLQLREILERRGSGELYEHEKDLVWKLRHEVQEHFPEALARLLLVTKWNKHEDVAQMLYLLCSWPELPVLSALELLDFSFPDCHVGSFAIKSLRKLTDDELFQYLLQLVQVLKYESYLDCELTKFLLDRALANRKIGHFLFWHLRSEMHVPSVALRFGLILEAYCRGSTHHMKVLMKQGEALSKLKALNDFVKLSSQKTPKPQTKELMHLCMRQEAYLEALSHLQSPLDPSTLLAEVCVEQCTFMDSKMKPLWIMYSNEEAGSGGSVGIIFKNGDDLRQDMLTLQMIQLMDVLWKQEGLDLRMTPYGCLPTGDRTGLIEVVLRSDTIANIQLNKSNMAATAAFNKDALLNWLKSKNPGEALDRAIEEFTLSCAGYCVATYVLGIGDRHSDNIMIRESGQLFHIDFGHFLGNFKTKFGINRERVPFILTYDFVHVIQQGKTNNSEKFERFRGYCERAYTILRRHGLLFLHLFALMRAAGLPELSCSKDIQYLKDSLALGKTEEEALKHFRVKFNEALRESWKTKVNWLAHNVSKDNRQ
T3 sequence (P27986 whole entry partner): as the sequence (P27986 whole entry partner) above
T1 sequence (P48736 whole entry): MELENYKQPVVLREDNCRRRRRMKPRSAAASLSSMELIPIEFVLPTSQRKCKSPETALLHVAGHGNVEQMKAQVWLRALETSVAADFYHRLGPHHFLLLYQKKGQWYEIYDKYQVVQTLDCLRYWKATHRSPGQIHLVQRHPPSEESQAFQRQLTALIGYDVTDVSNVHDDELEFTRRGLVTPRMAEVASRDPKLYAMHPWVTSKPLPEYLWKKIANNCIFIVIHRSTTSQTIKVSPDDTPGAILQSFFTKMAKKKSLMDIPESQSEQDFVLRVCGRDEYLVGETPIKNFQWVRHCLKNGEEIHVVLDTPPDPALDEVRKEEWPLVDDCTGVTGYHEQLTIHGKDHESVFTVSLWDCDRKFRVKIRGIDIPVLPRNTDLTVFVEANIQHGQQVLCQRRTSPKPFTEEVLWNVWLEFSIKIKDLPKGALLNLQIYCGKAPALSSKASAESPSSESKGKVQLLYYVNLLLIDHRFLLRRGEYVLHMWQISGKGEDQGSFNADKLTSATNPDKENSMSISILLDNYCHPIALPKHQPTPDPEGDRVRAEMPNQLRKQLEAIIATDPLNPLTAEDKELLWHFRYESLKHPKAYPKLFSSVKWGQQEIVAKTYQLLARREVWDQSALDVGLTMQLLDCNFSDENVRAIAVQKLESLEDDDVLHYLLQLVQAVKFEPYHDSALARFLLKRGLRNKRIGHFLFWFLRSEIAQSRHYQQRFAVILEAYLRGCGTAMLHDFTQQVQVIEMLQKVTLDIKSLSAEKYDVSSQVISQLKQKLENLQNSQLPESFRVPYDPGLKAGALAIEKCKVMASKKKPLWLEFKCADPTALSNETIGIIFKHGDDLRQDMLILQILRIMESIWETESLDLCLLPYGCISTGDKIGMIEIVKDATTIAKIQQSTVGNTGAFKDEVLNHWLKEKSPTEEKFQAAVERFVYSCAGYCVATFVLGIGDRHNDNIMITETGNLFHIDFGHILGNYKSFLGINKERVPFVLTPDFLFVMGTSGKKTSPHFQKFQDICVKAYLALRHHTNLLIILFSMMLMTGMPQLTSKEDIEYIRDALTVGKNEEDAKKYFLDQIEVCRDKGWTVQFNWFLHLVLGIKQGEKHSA
Sequence of PI3Kβ (Q8BTI9 whole entry, the tested form may be a part): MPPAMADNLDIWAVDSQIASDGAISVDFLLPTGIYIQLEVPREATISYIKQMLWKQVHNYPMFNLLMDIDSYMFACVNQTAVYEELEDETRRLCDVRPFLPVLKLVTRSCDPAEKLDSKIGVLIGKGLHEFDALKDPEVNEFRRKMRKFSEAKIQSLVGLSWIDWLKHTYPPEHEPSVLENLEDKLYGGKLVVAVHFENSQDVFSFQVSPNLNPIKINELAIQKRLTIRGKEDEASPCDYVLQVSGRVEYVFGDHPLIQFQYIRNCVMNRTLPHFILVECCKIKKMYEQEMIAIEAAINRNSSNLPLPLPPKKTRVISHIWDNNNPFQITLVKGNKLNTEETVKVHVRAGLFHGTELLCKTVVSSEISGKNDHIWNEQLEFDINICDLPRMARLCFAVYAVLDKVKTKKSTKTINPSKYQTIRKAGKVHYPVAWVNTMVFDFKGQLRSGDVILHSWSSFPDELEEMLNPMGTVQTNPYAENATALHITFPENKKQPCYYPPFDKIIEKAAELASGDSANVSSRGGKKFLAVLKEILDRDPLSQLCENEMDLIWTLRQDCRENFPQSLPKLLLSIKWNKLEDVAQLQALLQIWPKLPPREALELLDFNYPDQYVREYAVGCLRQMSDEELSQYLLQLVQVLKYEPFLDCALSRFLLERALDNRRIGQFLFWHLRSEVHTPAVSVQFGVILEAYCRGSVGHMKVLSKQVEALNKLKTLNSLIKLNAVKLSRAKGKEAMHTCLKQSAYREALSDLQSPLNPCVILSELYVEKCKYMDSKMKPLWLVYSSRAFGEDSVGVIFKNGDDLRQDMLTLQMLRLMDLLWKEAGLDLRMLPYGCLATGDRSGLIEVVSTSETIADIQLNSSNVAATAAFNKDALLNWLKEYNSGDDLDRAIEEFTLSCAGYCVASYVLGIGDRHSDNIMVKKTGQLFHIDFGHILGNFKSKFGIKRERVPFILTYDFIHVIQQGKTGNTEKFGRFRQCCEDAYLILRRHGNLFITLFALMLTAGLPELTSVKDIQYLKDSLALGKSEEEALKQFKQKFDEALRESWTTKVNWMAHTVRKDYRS

Row | Compound | IC50 [1] [µM] | IC50 [2] [µM] | IC50 [5, 6] [µM] | further results
1 | C[C@H](Nc1ncnc2cccnc12)c1cc2cc(F)ccc2c(=O)n1-c1ccccc1 [Compound I-6] | > 10 | 1 to 10 | – | EC50 ([3]; 1 μM to 100 nM): 0.1 to 1 µM; IC50 [4]: 1 to 10 µM
2 | C[C@H](Nc1ncnc2cccnc12)c1cc2c(F)ccc(Cl)c2c(=O)n1-c1ccccc1 [Compound I-14] | – | – | – | EC50 ([3]; 'Less than 100 nM'): < 0.1 µM; IC50 ([5]; 'Less than 100 nM'): < 0.1 µM
3 | Cc1nsc2cc(C(C)Nc3ncnc4cccnc34)n(-c3ccccc3)c(=O)c12 (stereo not drawn) [Compound I-27] | > 10 | 1 to 10 | – | EC50 ([3]; 1 μM to 100 nM): 0.1 to 1 µM
4 | C[C@H](Nc1ncnc2cccnc12)c1cc2scc(-c3cnn(C)c3)c2c(=O)n1-c1ccccc1 [Compound I-30] | > 10 | – | 1 to 10 | –
5 | C[C@H](Nc1ncnc2cccnc12)c1cc2cccc(-c3cnn(C)c3)c2c(=O)n1C [Compound I-46] | > 10 | 1 to 10 | 1 to 10 | –
6 | C[C@H](Nc1nc(Cl)nc2cccnc12)c1cc2cccc(Cl)c2c(=O)n1-c1ccccc1 [Compound I-52] | > 10 | – | 1 to 10 | EC50 ([3]; 1 μM to 100 nM): 0.1 to 1 µM
7 | C[C@H](Nc1c(C#N)cnc2cccnc12)c1cc2cccc(Cl)c2c(=O)n1-c1ccccc1 [Compound I-53] | > 10 | 1 to 10 | – | –
8 | C[C@H](Nc1c(C#N)cnc2cccnc12)c1cc2cccc(Cl)c2c(=O)n1-c1cccc(F)c1 [Compound I-54] | > 10 | 1 to 10 | – | –
9 | C[C@H](Nc1c(C#N)cnc2cccnc12)c1cc2cccc(-c3cnn(C)c3)c2c(=O)n1-c1ccccc1 [Compound I-55] | > 10 | 1 to 10 | – | –
10 | Cc1ccnc2cc(C(C)Nc3ncnc4cccnc34)[nH]c(=O)c12 (stereo not drawn) [Compound I-68, 4-methyl-7-(1-(pyrido[3,2-d]pyrimidin-4-ylamino)ethyl)-1,6-naphthyridin-5(6H)-one] | > 10 | – | 1 to 10 | –
11 | COc1ncc(-c2cccc3cc([C@H](C)Nc4cc(O)nc5cccnc45)n(-c4ccccc4)c(=O)c23)cn1 [Compound I-99] | > 10 | – | 1 to 10 | EC50 ([3]; column 'Greater than 1 μM to 10 μM'): 1 to 10 µM
12 | C[C@H](Nc1nc(N)nc2cccnc12)c1cc2cccc(N(C)C)c2c(=O)n1-c1ccccc1 [Compound I-102] | > 10 | – | 1 to 10 | –
13 | C[C@H](Nc1ccnc2ccnn12)c1cc2cccc(-c3cnn(C)c3)c2c(=O)n1C1CC1 [II-8] | 1 to 10 | 1 to 10 | – | IC50 [4]: 1 to 10 µM
14 | C[C@H](Nc1cc(Cl)nn2ccnc12)c1cc2cccc(-c3cnn(C)c3)c2c(=O)n1C1CC1 [II-13] | > 10 | 1 to 10 | 1 to 10 | –
15 | C[C@H](Nc1ccnc2ccnn12)c1cc2cccc(Cl)c2c(=O)n1CCN1CCCC1 [II-28] | 1 to 10 | – | 1 to 10 | –
16 | C[C@H](Nc1ccnn2ccnc12)c1cc2cccc(Cl)c2c(=O)n1CCN1CCCC1 [II-29] | 1 to 10 | – | 1 to 10 | –
17 | Cc1cn2nccc(N[C@@H](C)c3cc4cccc(Cl)c4c(=O)n3-c3cccc(F)c3)c2n1 [II-31] | > 10 | 1 to 10 | 1 to 10 | –
18 | Cc1cn2nccc(N[C@@H](C)c3cc4cccc(Cl)c4c(=O)n3-c3ccccc3)c2n1 [II-32] | > 10 | 1 to 10 | 1 to 10 | –
19 | Cc1cn2nccc(N[C@@H](C)c3cc4cccc(-c5cnn(C)c5)c4c(=O)n3-c3ccccc3)c2n1 [II-33] | > 10 | 1 to 10 | 1 to 10 | –

Row | Compound | IC50 [1] [µM] | IC50 [2] [µM] | IC50 [5, 6] [µM] | further results
20 | C[C@H](Nc1ncnc2ccnn12)c1cc2cccc(Cl)c2c(C(=O)N2CCOCC2)n1 [II-44] | 1 to 10 | 1 to 10 | – | IC50 [4]: > 10 µM
21 | C[C@H](Nc1ncnc2cccnc12)c1cc2cccc(C(F)(F)F)c2c(=O)n1-c1cccc(F)c1 [III-12] | 1 to 10 | – | – | EC50 ([3]; 'Less than 100 nM'): < 0.1 µM; IC50 [4]: 1 to 10 µM
22 | C[C@H](Nc1cc(Cl)nn2ccnc12)c1cc2cccc(C(F)(F)F)c2c(=O)n1-c1cccc(F)c1 [III-14] | > 10 | 1 to 10 | – | –
23 | C[C@H](Nc1ccnn2ccnc12)c1cc2cccc(C(F)(F)F)c2c(=O)n1-c1cccc(F)c1 [III-15] | 1 to 10 | – | – | EC50 ([3]; 'Less than 100 nM'): < 0.1 µM; IC50 [4]: 1 to 10 µM
24 | C[C@H](Nc1nc(Cl)nc2cccnc12)c1cc2cccc(C(F)(F)F)c2c(=O)n1-c1ccccc1 [III-22] | > 10 | – | 1 to 10 | –
25 | Cc1nc2c(N[C@@H](C)c3cc4cccc(C(F)(F)F)c4c(=O)n3-c3ccccc3)ncnc2s1 [III-26] | > 10 | 1 to 10 | – | –
26 | C[C@H](Nc1ncnn2cncc12)c1cc2cccc(C(F)(F)F)c2c(=O)n1-c1ccccc1 [III-28] | > 10 | – | 1 to 10 | –
27 | Cc1cn2nccc(N[C@@H](C)c3cc4cccc(C(F)(F)F)c4c(=O)n3-c3ccccc3)c2n1 [III-29] | > 10 | 1 to 10 | – | –
28 | C[C@H](Nc1c(C#N)cnc2cccnc12)c1cc2cccc(C(F)(F)F)c2c(=O)n1-c1ccccc1 [III-37] | > 10 | 1 to 10 | – | –
29 | C[C@H](Nc1ncnc2[nH]cnc12)c1cc2scc(C(F)(F)F)c2c(=O)n1-c1ccccc1 [III-40] | – | 1 to 10 | – | –
30 | C[C@H](Nc1ncnc2cccnc12)c1cc2scc(C(F)(F)F)c2c(=O)n1-c1ccccc1 [III-41] | > 10 | 1 to 10 | – | EC50 ([3]; 'Less than 100 nM'): < 0.1 µM
31 | COc1nc(N[C@@H](C)c2cc3cccc(C(F)(F)F)c3c(=O)n2-c2cccc(F)c2)c2ncccc2n1 [III-43] | > 10 | 1 to 10 | – | –
32 | C[C@H](Nc1ncnc(N)n1)c1cc2cccc(Cl)c2c(=O)n1-c1cccc(F)c1 [IV-2] | > 10 | 1 to 10 | – | EC50 ([3]; 'Less than 100 nM'): < 0.1 µM
33 | C[C@H](Nc1ncc2[nH]cnc2n1)c1cc2cccc(Cl)c2c(=O)n1-c1ccccc1 [IV-7] | > 10 | – | 1 to 10 | –
34 | C[C@H](NCc1cnc2cccnn12)c1cc2cccc(Cl)c2c(=O)n1-c1ccccc1 [IV-9, (S)-8-chloro-3-(1-(imidazo[1,2-b]pyridazin-3-ylmethylamino)ethyl)-2-phenylisoquinolin-1(2H)-one] | > 10 | – | 1 to 10 | –
35 | C[C@H](Nc1ncnn2cncc12)c1cc2cccc(Cl)c2c(=O)n1-c1cccc(F)c1 [IV-14] | > 10 | – | 1 to 10 | –
36 | C[C@H](Nc1nc(Cl)nc2nc(Cl)cnc12)c1cc2cccc(Cl)c2c(=O)n1-c1ccccc1 [IV-19] | > 10 | – | 1 to 10 | –
37 | C[C@H](Nc1nc(Cl)nc2nccnc12)c1cc2cccc(Cl)c2c(=O)n1-c1ccccc1 [IV-20] | > 10 | 1 to 10 | 1 to 10 | –
